The results in this text go back to PubChem BioAssay (NCI).

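The compound was tested at five concentrations on cells cultured in 96-well plates, with a 48-hour exposure period. GI50 is the concentration that inhibits growth by half. TGI is the concentration that stops growth completely.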 Where only a bound is given, the exact number is not on record here.

Some test systems named below: A498 renal; HCT-116 colon; HCT-15 colon; HOP-62 NSCLC; OVCAR-5 ovarian; SK-MEL-28 melanoma; SK-OV-3 ovarian; SN12C renal; NCI-H460 lung.
Holding throughout (assay): NCI anticancer screen, dose series, 48 h

For `CCCCCCCCCCCCCC/C(=C/OCC[N+](C)(C)C)OC(C)=O` (tested in a mixture with another compound), the TGI in the test with A498 renal was found to be 6.99 µM; with HCT-116 colon, 11.2 µM; in the test with HCT-15 colon it was 19.5 µM; in the test with HOP-62 NSCLC, 5.8 µM; with OVCAR-5 ovarian it was 13.2 µM; with SK-MEL-28 melanoma, 20.4 µM. Also, the TGI was determined as 17.1 µM with SK-OV-3 ovarian and 12.5 µM in the test on SN12C renal.

Take `Clc1ccc(OCc2nnc(CCCCCCCCc3nnc(COc4ccc(Cl)cc4)o3)o2)cc1`: the TGI with A498 renal is > 100 µM; in the test with HCT-116 colon it was 28.2 µM; in the test on HCT-15 colon, > 100 µM; in the test on NCI-H460 lung, > 100 µM; in the test on OVCAR-5 ovarian it was > 100 µM; with SK-MEL-28 melanoma, > 100 µM. Besides, the TGI with SK-OV-3 ovarian and with SN12C renal was > 100 µM throughout.

`COc1cc(CSc2ccc(O)cc2)cc(O)c1O`: the TGI with A498 renal was > 100 µM; in the test on HCT-116 colon it was 49.7 µM; in the test with HCT-15 colon it was 57.1 µM; in the test on HOP-62 NSCLC, > 100 µM; in the test on OVCAR-5 ovarian, 53.4 µM; in the test with SK-MEL-28 melanoma, > 100 µM. Further, the TGI with SN12C renal was 80.5 µM.

Turning to `O=C1CC(CC(O)C(O)CO)CC(=O)N1` (centres undefined), the TGI with A498 renal, with HCT-116 colon, with HCT-15 colon, in the test on HOP-62 NSCLC, with NCI-H460 lung and in the test on SK-MEL-28 melanoma was > 100 µM each time. The TGI in the test with SN12C renal was > 100 µM.

`COC(=O)[C@@H]1C[C@H]2[C@H](c3ccccc3Br)[C@@H](OC(C)=O)[C@@H](OCc3ccccc3)ON2O1`: the TGI in the test on HCT-116 colon, in the test on HCT-15 colon, in the test with HOP-62 NSCLC, with NCI-H460 lung, in the test on OVCAR-5 ovarian and with SK-MEL-28 melanoma was > 100 µM each time. The TGI in the test with SK-OV-3 ovarian and with SN12C renal was > 100 µM throughout.

For the compound `CC1(C)C2CCC1(C)C(NC(=O)CCN1CCOCC1)C2` (centres undefined), the TGI in the test on A498 renal, with HCT-116 colon, in the test on HOP-62 NSCLC, with NCI-H460 lung, with OVCAR-5 ovarian and in the test on SK-MEL-28 melanoma was > 100 µM in each case. In addition, the TGI in the test on SK-OV-3 ovarian and in the test with SN12C renal was > 100 µM throughout.

For `O=C(c1cccs1)N(C(=S)OCc1ccccn1)c1ccccc1`, the TGI with A498 renal, with HCT-116 colon, in the test with HCT-15 colon, in the test with NCI-H460 lung, with OVCAR-5 ovarian and in the test with SK-MEL-28 melanoma was > 100 µM throughout. In addition, the TGI in the test with SK-OV-3 ovarian and with SN12C renal was > 100 µM in each case.

On to `COc1ccc(-n2c(C)nc3ccc(N=Cc4ccccc4)cc3c2=O)cc1`, for which the TGI in the test with A498 renal, in the test on HCT-116 colon, in the test with HCT-15 colon, in the test with HOP-62 NSCLC, in the test on NCI-H460 lung and in the test with OVCAR-5 ovarian was > 100 µM each time. In addition, the TGI in the test with SK-MEL-28 melanoma and with SN12C renal was > 100 µM each time.

For `O=c1oc2ccccc2c(O)c1C(c1ccc([N+](=O)[O-])cc1)c1c(O)c2ccccc2oc1=O`, the TGI with A498 renal, with HCT-116 colon, with HCT-15 colon, in the test with HOP-62 NSCLC, with NCI-H460 lung and with SK-MEL-28 melanoma was > 100 µM each time. Besides, in the test with SN12C renal, the TGI is > 100 µM.

On to `c1csc(-c2cc(-c3ccsc3)c(-c3cccs3)s2)c1`, for which the TGI in the test on A498 renal, in the test on HCT-116 colon, in the test on HCT-15 colon, in the test on HOP-62 NSCLC, with NCI-H460 lung and with OVCAR-5 ovarian was > 100 µM throughout. The TGI with SK-MEL-28 melanoma and in the test with SN12C renal was > 100 µM in each case.

As to `O=c1[nH]ncc2[nH]c3c(c12)CCCc1ccccc1-3`, the TGI with A498 renal is 66.3 µM; in the test with HCT-116 colon, > 100 µM; in the test on HCT-15 colon, > 100 µM; in the test on HOP-62 NSCLC, > 100 µM; in the test with NCI-H460 lung, > 100 µM; in the test with OVCAR-5 ovarian it was > 100 µM. Besides, the TGI with SK-OV-3 ovarian and in the test on SN12C renal was > 100 µM each time.

Turning to `CCOC(=O)C1C(=O)CC(C)(O)C(C(=O)OCC)C1c1ccc(O)c(OC)c1` (centres undefined), the TGI in the test on A498 renal, with HCT-116 colon, in the test with HCT-15 colon, in the test on HOP-62 NSCLC, in the test on NCI-H460 lung and in the test with OVCAR-5 ovarian was > 100 µM throughout. For the same compound, the TGI in the test on SK-MEL-28 melanoma and in the test with SN12C renal was > 100 µM in each case.

For the compound `Cc1ccc2c(c1)C(=O)C1(C2)Cc2ccc(C)cc2C1=O`, the TGI in the test on A498 renal, in the test on HCT-116 colon, with HCT-15 colon, in the test with HOP-62 NSCLC, in the test on NCI-H460 lung and in the test with OVCAR-5 ovarian was > 100 µM each time. Moreover, the TGI with SK-OV-3 ovarian was > 100 µM.

In the case of `N[C@H]1CCc2c1nc1c(c2-c2ccccc2)CC[C@@H]1N`, the TGI is 45.6 µM in the test with HCT-116 colon; > 100 µM with HCT-15 colon; > 100 µM in the test with HOP-62 NSCLC; > 100 µM in the test on NCI-H460 lung; 59.7 µM in the test with OVCAR-5 ovarian; > 100 µM in the test on SN12C renal.

Turning to `COc1cccc2c1[C@H](OC)[C@]13O[C@@]1(C2=O)[C@H](O)[C@H](C)[C@@](O)(C(=O)[C@@H]1O[C@H]1C)[C@@H]3O`, the TGI stood at 0.585 µM in the test on A498 renal; 2.07 µM in the test with HCT-15 colon; 1.59 µM in the test on HOP-62 NSCLC; 0.617 µM in the test with NCI-H460 lung; 2.05 µM in the test with OVCAR-5 ovarian; 0.654 µM in the test with SK-MEL-28 melanoma. The figures for the TGI in the test on SK-OV-3 ovarian and in the test with SN12C renal were 1.47 µM and 0.819 µM, respectively. The GI50 with NCI-H460 lung was 0.211 µM; in the test with SN12C renal, 0.0489 µM.

Consider `CCOC(=O)c1c(SCC#N)n(-c2ccccc2)c(=S)n(-c2ccccc2)c1=O`, for which the TGI with HCT-116 colon, in the test on HCT-15 colon, with HOP-62 NSCLC, in the test with NCI-H460 lung, with OVCAR-5 ovarian and in the test on SK-MEL-28 melanoma was > 100 µM each time. Moreover, the TGI in the test with SK-OV-3 ovarian and in the test with SN12C renal was > 100 µM throughout.
